# Assay results: ChEMBL document CHEMBL3044865, “Herbicidal Activity and Characteristics of Pyraflufen-ethyl for Controlling Broad-leaved Weeds in Cereals” (J Pestic Sci, 2002)
# Activity calls are given as the source filed them. The rule behind the calls is not given here.
# Legend:
# Triticum aestivum [1] = experiment: Phytotoxicity in Triticum aestivum (wheat) assessed as injury at 10 g/ha post emergence application measured after 21 days after treatment; format: organism-based; conditions: in vivo, other, 504 h
# Hordeum vulgare [2] = experiment: Phytotoxicity in Hordeum vulgare (barley) assessed as injury at 10 g/ha post emergence application measured after 21 days after treatment; format: organism-based; conditions: in vivo, other, 504 h
# Alopecurus myosuroides [3] = experiment: Herbicidal activity against Alopecurus myosuroides assessed as killing at 30 g/ha post emergence application measured after 21 days after treatment; format: functional, organism-based
# Triticum aestivum [4] = experiment: Phytotoxicity in Triticum aestivum (wheat) assessed as injury at 3 g/ha post emergence application measured after 21 days after treatment; format: organism-based; conditions: in vivo, other, 504 h
# Veronica hederifolia [5] = experiment: Herbicidal activity against Veronica hederaefolia assessed as killing at 300 g/ha post emergence application measured after 21 days after treatment; format: functional
# [6] = target: T1, Protoporphyrinogen oxidase 2 (Spinacia oleracea) (UniProt Q94IG7); experiment: Inhibition of Stellaria media protoporphyinogen oxidase assessed as herbicidal activity at 0.3 g/ha measured after 21 days after treatment under greenhouse by time-course analysis; set-up: scale not given: the % may be the effect or the level left
# T1 sequence (whole entry): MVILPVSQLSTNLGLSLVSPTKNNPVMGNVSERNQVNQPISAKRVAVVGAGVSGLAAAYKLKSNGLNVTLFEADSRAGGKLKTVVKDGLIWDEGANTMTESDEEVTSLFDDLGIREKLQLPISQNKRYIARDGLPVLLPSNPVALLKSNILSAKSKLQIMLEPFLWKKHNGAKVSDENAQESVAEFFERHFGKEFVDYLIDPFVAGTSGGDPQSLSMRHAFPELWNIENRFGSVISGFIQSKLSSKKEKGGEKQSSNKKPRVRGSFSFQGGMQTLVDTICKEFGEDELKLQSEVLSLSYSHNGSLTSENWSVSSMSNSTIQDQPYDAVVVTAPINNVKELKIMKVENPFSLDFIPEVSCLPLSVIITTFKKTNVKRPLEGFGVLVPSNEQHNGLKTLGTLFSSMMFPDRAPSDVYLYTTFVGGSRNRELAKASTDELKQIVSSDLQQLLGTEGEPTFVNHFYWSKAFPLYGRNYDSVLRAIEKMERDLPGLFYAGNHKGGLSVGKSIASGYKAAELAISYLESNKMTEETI
# Viola arvensis [7] = experiment: Herbicidal activity against Viola arvensis assessed as killing at 3 g/ha post emergence application measured after 21 days after treatment; format: functional
# Galium aparine [8] = experiment: Herbicidal activity against Galium aparine assessed as killing at 3 g/ha post emergence application measured after 21 days after treatment; format: functional
# Hordeum vulgare [9] = experiment: Phytotoxicity in Hordeum vulgare (barley) assessed as injury at 10 g/ha pre emergence application measured after 21 days after treatment; format: organism-based; conditions: in vivo, other, 504 h
# Galium aparine [10] = experiment: Herbicidal activity against Galium aparine assessed as killing at 30 g/ha post emergence application measured after 21 days after treatment; format: functional
# Hordeum vulgare [11] = experiment: Phytotoxicity in Hordeum vulgare (barley) assessed as injury at 100 g/ha pre emergence application measured after 21 days after treatment; format: organism-based; conditions: in vivo, other, 504 h
# Galium aparine [12] = experiment: Herbicidal activity against Galium aparine assessed as killing at 10 g/ha pre emergence application measured after 21 days after treatment; format: functional
# Hordeum vulgare [13] = experiment: Phytotoxicity in Hordeum vulgare (barley) assessed as injury at 0.3 g/ha post emergence application measured after 21 days after treatment; format: organism-based; conditions: in vivo, other, 504 h
# Triticum aestivum [14] = experiment: Phytotoxicity in Triticum aestivum (wheat) assessed as injury at 10 g/ha pre emergence application measured after 21 days after treatment; format: organism-based; conditions: in vivo, other, 504 h
# Viola arvensis [15] = experiment: Herbicidal activity against Viola arvensis assessed as killing at 10 g/ha pre emergence application measured after 21 days after treatment; format: functional
# Veronica hederifolia [16] = experiment: Herbicidal activity against Veronica hederaefolia assessed as killing at 0.3 g/ha post emergence application measured after 21 days after treatment; format: functional
# Veronica hederifolia [17] = experiment: Herbicidal activity against Veronica hederaefolia assessed as killing at 10 g/ha post emergence application measured after 21 days after treatment; format: functional
# Viola arvensis [18] = experiment: Ratio of compound ED90 to ioxynil ED90 for herbicidal activity against Viola arvensis
# Stellaria media [19] = experiment: Ratio of compound ED90 to ioxynil ED90 for herbicidal activity against Stellaria media
# Hordeum vulgare [20] = experiment: Phytotoxicity in Hordeum vulgare (barley) assessed as injury at 30 g/ha pre emergence application measured after 21 days after treatment; format: organism-based; conditions: in vivo, other, 504 h
# Stellaria media [21] = experiment: Herbicidal activity against Stellaria media assessed as killing at 30 g/ha post emergence application measured after 21 days after treatment; format: functional
# Stellaria media [22] = experiment: Herbicidal activity against Stellaria media assessed as killing at 100 g/ha post emergence application measured after 21 days after treatment; format: functional
# Avena fatua [23] = experiment: Herbicidal activity against Avena fatua assessed as killing at 300 g/ha post emergence application measured after 21 days after treatment; format: functional
# [24] = target: T1, Protoporphyrinogen oxidase 2 (Spinacia oleracea); experiment: Inhibition of Stellaria media protoporphyinogen oxidase assessed as herbicidal activity at 0.3 g/ha measured after 2 days after treatment under greenhouse by time-course analysis; set-up: scale not given: the % may be the effect or the level left
# Galium aparine [25] = experiment: Herbicidal activity against Galium aparine assessed as killing at 12 g/ha measured after 21 days after treatment by time-course analysis; format: functional
# Alopecurus myosuroides [26] = experiment: Herbicidal activity against Alopecurus myosuroides assessed as killing at 10 g/ha post emergence application measured after 21 days after treatment; format: functional
# Hordeum vulgare [27] = experiment: Phytotoxicity in Hordeum vulgare (barley) assessed as injury at 1 g/ha post emergence application measured after 21 days after treatment; format: organism-based; conditions: in vivo, other, 504 h
# Stellaria media [28] = experiment: Herbicidal activity against Stellaria media assessed as killing at 10 g/ha post emergence application measured after 21 days after treatment; format: functional
# Avena fatua [29] = experiment: Herbicidal activity against Avena fatua assessed as killing at 10 g/ha post emergence application measured after 21 days after treatment; format: functional
# Galium aparine [30] = experiment: Herbicidal activity against Galium aparine assessed as killing at 1 g/ha post emergence application measured after 21 days after treatment; format: functional
# Alopecurus myosuroides [31] = experiment: Herbicidal activity against Alopecurus myosuroides assessed as killing at 100 g/ha post emergence application measured after 21 days after treatment; format: functional, organism-based
# Alopecurus myosuroides [32] = experiment: Herbicidal activity against Alopecurus myosuroides assessed as killing at 10 g/ha pre emergence application measured after 21 days after treatment; format: functional, organism-based
# Alopecurus myosuroides [33] = experiment: Herbicidal activity against Alopecurus myosuroides assessed as killing at 0.3 g/ha post emergence application measured after 21 days after treatment; format: functional, organism-based
# Stellaria media [34] = experiment: Herbicidal activity against Stellaria media assessed as killing at 1 g/ha post emergence application measured after 21 days after treatment; format: functional
# Triticum aestivum [35] = experiment: Phytotoxicity in Triticum aestivum (wheat) assessed as injury at 1 g/ha post emergence application measured after 21 days after treatment; format: organism-based; conditions: in vivo, other, 504 h
# Viola arvensis [36] = experiment: Herbicidal activity against Viola arvensis assessed as killing at 300 g/ha post emergence application measured after 21 days after treatment; format: functional
# Hordeum vulgare [37] = experiment: Phytotoxicity in Hordeum vulgare (barley) assessed as injury at 300 g/ha pre emergence application measured after 21 days after treatment; format: organism-based; conditions: in vivo, other, 504 h
# Avena fatua [38] = experiment: Herbicidal activity against Avena fatua assessed as killing at 1 g/ha post emergence application measured after 21 days after treatment; format: functional
# [39] = Ratio of compound ED90 to […] ED90 for herbicidal activity against Matricaria inodora
# Veronica hederifolia [40] = experiment: Herbicidal activity against Veronica hederaefolia assessed as killing at 10 g/ha pre emergence application measured after 21 days after treatment; format: functional
# Avena fatua [41] = experiment: Herbicidal activity against Avena fatua assessed as killing at 100 g/ha post emergence application measured after 21 days after treatment; format: functional
structure (smiles),measurement,setting,value
CCOC(=O)COc1cc(-c2nn(C)c(OC(F)F)c2Cl)c(F)cc1Cl [PYRAFLUFEN-ETHYL],Activity,Triticum aestivum [1],11%
same,Activity,Hordeum vulgare [2],11%
same,Activity,Alopecurus myosuroides [3],inactive
same,Activity,Triticum aestivum [4],1%
same,Activity,Veronica hederifolia [5],80%
same,Activity,[6],> 90%
same,Activity,Viola arvensis [7],80%
same,Activity,Galium aparine [8],100%
same,Activity,Hordeum vulgare [9],Non-toxic
same,Activity,Galium aparine [10],21%
same,Activity,Hordeum vulgare [11],1%
same,Activity,Galium aparine [12],11%
same,Activity,Hordeum vulgare [13],Non-toxic
same,Activity,Triticum aestivum [14],Non-toxic
same,Activity,Viola arvensis [15],11%
same,Activity,Veronica hederifolia [16],40%
same,Activity,Veronica hederifolia [17],100%
same,Ratio,Viola arvensis [18],10
same,Ratio,Stellaria media [19],166
same,Activity,Hordeum vulgare [20],Non-toxic
same,Activity,Stellaria media [21],40%
same,Activity,Stellaria media [22],90%
same,Activity,Avena fatua [23],21%
same,Activity,[24],90%
same,Activity,Galium aparine [25],>90%
same,Activity,Alopecurus myosuroides [26],11%
same,Activity,Hordeum vulgare [27],Non-toxic
same,Activity,Stellaria media [28],100%
same,Activity,Avena fatua [29],21%
same,Activity,Galium aparine [30],80%
same,Activity,Alopecurus myosuroides [31],inactive
same,Activity,Alopecurus myosuroides [32],inactive
same,Activity,Alopecurus myosuroides [33],inactive
same,Activity,Stellaria media [34],100%
same,Activity,Triticum aestivum [35],Non-toxic
same,Activity,Viola arvensis [36],50%
same,Activity,Hordeum vulgare [37],21%
same,Activity,Avena fatua [38],1%
same,Ratio,[39],3330
same,Activity,Veronica hederifolia [40],1%
same,Activity,Avena fatua [41],1%
